Measurements reported in paper PMC8795149, “Characterization of a novel non-steroidal glucocorticoid receptor agonist optimized for topical treatment” (Scientific Reports, 2022).

Experiments:
[1] = system: LPS-induced TNF-alpha release in PBMCs; assay: TNF-alpha inhibition assay, pig PBMCs; type: cell-based; conditions: for EC50: geometric mean
Method: PMBCs were isolated from human buffy coats or animal whole blood (EDTA-treated). Buffy coats from anonymized healthy adult blood donors were obtained from the Blood Bank of the National University Hospital Copenhagen in accordance with national legislation. Whole blood from mice (obtained from Charles River) was sampled at the animal facility at LEO Pharma and whole blood from pigs was sourced from ScanTox. Test compounds and PBMCs were incubated with 1 µg/ml LPS (Sigma) overnight at 37 °C in HEPES and Glutamax-containing RPMI medium supplemented with either 0.5% human serum albumin (human PBMCs) or 10% fetal bovine serum (mouse and pig PBMCs) and penicillin/streptomycin. TNF-alpha was measured using AlphaLISA (Perkin Elmer).
IC50 of test compounds was determined by 10-point titrations in duplicates. IC50 values and other parameters were calculated by sigmoidal curve fitting in Assay Explorer.

[2] = system: FKBP5 mRNA (GR target engagement); assay: Human skin explant, FKBP5 gene expression; type: cell-based; conditions: human skin explants; for FKBP5 Emax / FKBP5 Relative ED50 (API concentration in dosing solution): topical, 24 h; for FKBP5 Relative ED50 (API concentration in dosing solution): weighted geometric mean ± SD
Method: NativeSkin models (NS002) were purchased from Genoskin, France. Human skin samples from abdominal reduction surgery were obtained by Genoskin from donors upon written informed consent. Full ethical approval for the study protocol was obtained from the French ethical research committee (Comité de Protection des Personnes), and authorization was given by the French Ministry of Research. The study was conducted according to the Declaration of Helsinki. 8 mm punch biopsies were excised and embedded in a fibrin-based matrix in transwells and a silicone ring was firmly attached to the surface covering the outer edge of the skin biopsy to prevent lateral diffusion of topically applied formulations. Skin models were cultured in a defined hydrocortisone- and serum-free medium provided by Genoskin.
LEO 134310 and reference glucocorticoids were dissolved in propylene carbonate and tested at 4 concentrations in five- or tenfold titrations. Compounds were applied in duplicates or triplicates on the skin surface (0.5 cm^2) in a volume of 2 µL and incubated for 24 h. Vehicle and untreated samples were included for basal level of expression.
RNA was extracted and qPCR was performed using TaqMan gene expression assays (FKBP5-Hs01561006_m1, TSC22D3 (GILZ)-Hs00608272_m1, TXNIP-Hs01006900_g1, ACTB-Hs99999903_m1, PPIA-Hs99999904_m1, GAPDH-Hs99999905_m1). Gene expression of FKBP5,TSC22D3 (GILZ), and TXNIP was normalized to the geometric mean of the reference genes ACTB, PPIA and GAPDH.
Doses were expressed as compound (API) concentrations (µg/mL) in the applied formulations. Relative upregulation of FKBP5 was estimated as − fold to vehicle treated control. Effective doses (Emax and ED50) were determined from a sigmoid Emax model in Phoenix64 version 8.0, Pharsight, Certara. Mean values and standard deviation of Emax and ED50 were calculated by weighing individual experiments based on the intra- and inter-experiment variability.

[3] = system: minipig skin; assay: Local tolerance study in minipigs (skin atrophy); type: in vivo; conditions: for Discoloration of application sites: 4 weeks topical; for Reduction in epidermal thickness: 4 weeks, vs untreated and vehicle controls
Method: 5 male Göttingen SPF minipigs (5–7 months old; body weight 12–15 kg) were obtained from Ellegaard Göttingen Minipigs A/S, Dalmose, Denmark.
Each animal was treated for 6 h daily over 28 days with 25 µL of the following topical formulations on an application area of 2.5 cm × 2.5 cm: Vehicle (transcutol:acetone (1:9) with 10% hydroxy-propyl-cellulose); Dermovate cream (CP 0.05%), CP 0.05% in vehicle; Betnovate cream (BMV 0.1%); BMV 0.1% in vehicle; LEO 134310 2% in vehicle. One test field on each animal remained untreated.
Formulations were spread uniformly over the indicated clipped area and covered with porous gauze dressing. At the end of each exposure period all application site as well as the untreated area were rinsed with a mild soap (Abena Mild cream soap, Abena A/S, Denmark) in water and dried with a paper towel.
Skin biopsies were taken from anaesthetized animals 24 h after the last treatment. Samples for histopathological examination were fixed in phosphate buffered neutral 4% formaldehyde and stained with H&E. Mean arithmetic epidermal thickness was determined by measuring epidermal area, excluding stratum corneum, and dividing this area with the length of the epidermis. All measurements were performed on H&E stained and scanned slides using the Visiopharm software.

[4] = target: T1, GR (Homo sapiens, UniProt P04150); assay: Reversal of GR agonist-mediated suppression of cytokine release from LPS-stimulated PBMC by RU486; type: cell-based; design: endogenous in cells; conditions: 100 nM agonist
T1 sequence (P04150 1-777): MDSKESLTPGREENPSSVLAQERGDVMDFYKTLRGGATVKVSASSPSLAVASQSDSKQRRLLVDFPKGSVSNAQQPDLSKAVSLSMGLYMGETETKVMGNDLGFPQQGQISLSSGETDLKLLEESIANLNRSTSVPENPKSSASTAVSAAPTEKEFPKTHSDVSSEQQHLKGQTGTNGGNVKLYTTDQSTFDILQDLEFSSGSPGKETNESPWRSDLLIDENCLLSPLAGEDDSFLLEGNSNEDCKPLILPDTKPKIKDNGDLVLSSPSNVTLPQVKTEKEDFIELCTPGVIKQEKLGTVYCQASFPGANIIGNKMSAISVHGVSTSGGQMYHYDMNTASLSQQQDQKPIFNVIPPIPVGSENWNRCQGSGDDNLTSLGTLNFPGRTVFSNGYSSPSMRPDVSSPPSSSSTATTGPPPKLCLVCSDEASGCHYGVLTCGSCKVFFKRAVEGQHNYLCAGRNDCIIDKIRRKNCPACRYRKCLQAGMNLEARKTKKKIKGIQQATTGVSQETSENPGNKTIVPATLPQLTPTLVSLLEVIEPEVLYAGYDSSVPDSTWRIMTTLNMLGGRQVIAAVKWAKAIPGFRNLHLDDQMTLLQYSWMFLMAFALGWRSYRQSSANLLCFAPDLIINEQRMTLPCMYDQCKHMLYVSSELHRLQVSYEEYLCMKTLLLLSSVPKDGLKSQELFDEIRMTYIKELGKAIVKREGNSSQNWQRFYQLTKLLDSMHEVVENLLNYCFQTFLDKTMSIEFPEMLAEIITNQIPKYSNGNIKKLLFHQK
Method: PMBCs were isolated from human buffy coats obtained in accordance with national legislation and following in-house protocol at Charles River Laboratories (Leiden, Netherlands). Test compounds and PBMCs were incubated with 10 ng/ml LPS (Sigma) overnight at 37°C in HEPES and Glutamax-containing RPMI medium supplemented with 0.5% human serum albumin (human PBMCs) and penicillin/streptomycin. TNF-alpha, IL-1-beta, and IL-6 were measured by MSD multiplex assay (Meso Scale Discovery).Compound concentration in dermis (Figure S4)

[5] = CP 0.05%, BMV 0.1%, 6 h daily semi-occlusion

| SMILES | Emax ([1]; Sus scrofa, PBMC) [%] | EC50 ([1]; Sus scrofa, PBMC) [nM] | FKBP5 Emax [2] | FKBP5 Relative ED50 (API concentration in dosing solution) [2] | Discoloration of application sites [3] | Reduction in epidermal thickness [3, 5] | Reversal by GR antagonist RU486 of inhibition of LPS-induced cytokine release [4] | Inhibition of LPS-induced TNF-alpha release Emax [1] [%] | EC50 [1] [nM] | Higher dose needed to achieve similar level of FKBP5 induction as BMV [2] | Reduction in epidermal thickness ([3]; LEO 134310 2%, 6 h daily) |
| --- | --- | --- | --- | --- | --- | --- | --- | --- | --- | --- | --- |
| CCCCC(=O)O[C@]1(C(=O)CO)[C@@H](C)C[C@H]2[C@@H]3CCC4=CC(=O)C=C[C@]4(C)[C@@]3(F)[C@@H](O)C[C@@]21C [BMV, Betamethasone Valerate] | 99 | 1.5 | 5.6 ± 4.9 fold to control | 9.5 ± 6.9 µg/mL | notable discoloration was observed in most application sites | 30–40% | could be reversed in a concentration-dependent manner |  |  |  |  |
| C[C@H](NC(=O)[C@H]1CCCO1)[C@H](Oc1ccc(C(=O)O[C@H]2CCCN(C(=O)[C@H]3COC(=O)C3)C2)cc1)c1ccc(C2CC2)cc1 [LEO 134310] |  |  | 7.2 ± 2.7^NS fold to control | 270 ± 130 µg/mL |  |  | could be reversed in a concentration-dependent manner | 96 | 3.2 | approximately 30 fold | did not result in any significant reduction in epidermal thickness |
| CCC(=O)O[C@]1(C(=O)CCl)[C@@H](C)C[C@H]2[C@@H]3CCC4=CC(=O)C=C[C@]4(C)[C@@]3(F)[C@@H](O)C[C@@]21C [CP, Clobetasol Propionate] | 95 | 0.38 | 6.9 ± 3.1^NS fold to control | 0.52 ± 0.06^NS µg/mL | notable discoloration was observed in most application sites | 30–40% | could be reversed in a concentration-dependent manner |  |  |  |  |
